Test results from patent US20230279025A1, “KRAS G12D INHIBITORS” (Mirati Therapeutics, Inc., priority 2020, published 2023).
Counter-ions that a name gives are not always drawn.

target: KRas G12D (Homo sapiens (Human), UniProt P01116, G12D); test: KRas G12D Binding Assay (TR-FRET displacement of Cy5 labelled tracer); conditions: GDP-loaded KRAS G12D (amino acids 1:169), 60 minute incubation at 22° C.
Experimental: After a 60 minute incubation at 22° C., the reaction was measured using a PerkinElmer EnVision multimode plate reader via TR-FRET dual wavelength detection, and the percent of control (POC) calculated using a ratiometric emission factor. […] The POC values were fit to a 4-parameter logistic curve and the IC50 value was determined as the concentration where the curve crosses 50 POC.
ND stands for “not determined.”

Chain of KRas G12D (P01116 other isoform, or with tags, fused parts or gaps G12D): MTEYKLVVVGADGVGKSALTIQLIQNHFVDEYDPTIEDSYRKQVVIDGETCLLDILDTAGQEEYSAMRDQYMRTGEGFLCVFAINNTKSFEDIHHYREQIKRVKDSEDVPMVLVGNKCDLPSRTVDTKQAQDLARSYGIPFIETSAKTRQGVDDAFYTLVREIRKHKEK

Compared with `CCc1cccc2cncc(-c3ncc4c(N5CC6CCC(C5)N6)nc(OCC56CCCN5C[C@H](F)C6)nc4c3F)c12` (mixture of isomers) [Example 324, 4-((1R,5S)-3,8-diazabicyclo[3.2.1]octan-3-yl)-7-(5-ethylisoquinolin-4-yl)-8-fluoro-2-((2-fluorotetrahydro-1H-pyrrolizin-7a(5H)-yl)methoxy)pyrido[4,3-d]pyrimidine (racemic, trans)], `CCc1c(F)ccc2cccc(-c3ncc4c(N5CC6CCC(C5)N6)nc(OC[C@@]56CCCN5C[C@H](F)C6)nc4c3F)c12` (stereo in doubt) [Example 381, 4-((1R,5S)-3,8-diazabicyclo[3.2.1]octan-3-yl)-7-(8-ethyl-7-fluoronaphthalen-1-yl)-8-fluoro-2-((2-fluorotetrahydro-1H-pyrrolizin-7a(5H)-yl)methoxy)pyrido[4,3-d]pyrimidine] is 15-fold lower in IC50: 10.2 nM for the first, 0.7 nM for the second. The second is the more potent here.

Going from `O=C(OC[C@H]1CC[C@@]2(COc3nc(N4CC5CCC(C4)N5)c4cnc(-c5cccc6cccc(Cl)c56)c(F)c4n3)CCCN12)N1CCCC1` [Example 443, ((3R,7aR)-7a-(((4-(3,8-diazabicyclo[3.2.1]octan-3-yl)-7-(8-chloronaphthalen-1-yl)-8-fluoropyrido[4,3-d]pyrimidin-2-yl)oxy)methyl)hexahydro-1H-pyrrolizin-3-yl)methyl pyrrolidine-1-carboxylate] to `O=C(O[C@@H]1CN2CCC[C@]2(COc2nc(N3C[C@H]4CC[C@@H](C3)N4)c3cnc(-c4cccc5cccc(Cl)c45)c(F)c3n2)C1)N1CCOCC1` [Example 436, (2S,7aR)-7a-(((4-((1R,5S)-3,8-diazabicyclo[3.2.1]octan-3-yl)-7-(8-chloronaphthalen-1-yl)-8-fluoropyrido[4,3-d]pyrimidin-2-yl)oxy)methyl)hexahydro-1H-pyrrolizin-2-yl morpholine-4-carboxylate], the IC50 rises from 3.2 nM to 48.3 nM (15-fold). The first is the more potent here.

Going from `C#Cc1cccc2cc(OC)cc(-c3ncc4c(N5C[C@H]6CC[C@@H](C5)N6)nc(OCC56CCCN5CCC6)nc4c3F)c12` [Example 231, 4-((1R,5S)-3,8-diazabicyclo[3.2.1]octan-3-yl)-7-(8-ethynyl-3-methoxynaphthalen-1-yl)-8-fluoro-2-((hexahydro-1H-pyrrolizin-7a-yl)methoxy)pyrido[4,3-d]pyrimidine] to `CCn1ccc2cccc(-c3ncc4c(N5C[C@H]6CC[C@@H](C5)N6)nc(OCC56CCCN5CCC6)nc4c3F)c21` [Example 427, 4-((1R,5S)-3,8-diazabicyclo[3.2.1]octan-3-yl)-7-(1-ethyl-1H-indol-7-yl)-8-fluoro-2-((hexahydro-1H-pyrrolizin-7a-yl)methoxy)pyrido[4,3-d]pyrimidine], the IC50 rises from 19.8 nM to 35.3 nM (1.8-fold). The first is the more potent here.

Compared with `CN1CCC(F)(COc2nc(N3C[C@H]4CC[C@@H](C3)N4)c3cnc(-c4cccc5cccc(Cl)c45)c(F)c3n2)CC1` [Example 398, 4-((1R,5S)-3,8-diazabicyclo[3.2.1]octan-3-yl)-7-(8-chloronaphthalen-1-yl)-8-fluoro-2-((4-fluoro-1-methylpiperidin-4-yl)methoxy)pyrido[4,3-d]pyrimidine], `Fc1c(-c2cccc3cccc(Cl)c23)ncc2c(N3C[C@H]4CC[C@@H](C3)N4)nc(OCC34CCCN3CC(F)(F)C4)nc12` (stereo partly drawn) [Example 93, 4-((1R,5S)-3,8-diazabicyclo[3.2.1]octan-3-yl)-7-(8-chloronaphthalen-1-yl)-2-((2,2-difluorotetrahydro-1H-pyrrolizin-7a(5H)-yl)methoxy)-8-fluoropyrido[4,3-d]pyrimidine bis(2,2,2-trifluoroacetate)] is 5.6-fold lower in IC50: 593 nM for the first, 105 nM for the second.

First: Fc1c(-c2cnccc2C(F)(F)F)ncc2c(N3CC4CCC(C3)N4)nc(OC[C@@]34CCCN3C[C@H](F)C4)nc12 (stereo in doubt) [Example 415, 4-((1R,5S)-3,8-diazabicyclo[3.2.1]octan-3-yl)-8-fluoro-2-((2-fluorotetrahydro-1H-pyrrolizin-7a(5H)-yl)methoxy)-7-(4-(trifluoromethyl)pyridin-3-yl)pyrido[4,3-d]pyrimidine]
Second: Oc1cc(-c2ncc3c(N4C[C@H]5CC[C@@H](C4)N5)nc(OC[C@@]45CCCN4C[C@H](F)C5)nc3c2F)c2c(F)c(F)ccc2c1 [Example 246, 4-(4-((1R,5S)-3,8-diazabicyclo[3.2.1]octan-3-yl)-8-fluoro-2-(((2R,7aS)-2-fluorohexahydro-1H-pyrrolizin-7a-yl)methoxy)pyrido[4,3-d]pyrimidin-7-yl)-5,6-difluoronaphthalene-2-ol]
The IC50 of the first is 4300-fold higher: 2580 nM for the first, 0.6 nM for the second.

`C#Cc1cccc2cccc(-c3ncc4c(N5CC6CCC(C5)N6)ncnc4c3F)c12` [Example 188, 4-(3,8-diazabicyclo[3.2.1]octan-3-yl)-7-(8-ethynyl-1-naphthyl)-8-fluoro-pyrido[4,3-d]pyrimidine] and `CN1CC[C@@H](Oc2nc(N3C[C@H]4CC[C@@H](C3)N4)c3cnc(-c4cccc5cccc(Cl)c45)c(F)c3n2)C1` [Example 358, 4-((1R,5S)-3,8-diazabicyclo[3.2.1]octan-3-yl)-7-(8-chloronaphthalen-1-yl)-8-fluoro-2-(((R)-1-methylpyrrolidin-3-yl)oxy)pyrido[4,3-d]pyrimidine] are within 1.5-fold of each other in IC50: 1920 nM for the first, 1980 nM for the second.

`Fc1c(-c2cccc(C(F)(F)F)c2C(F)(F)F)ncc2c(N3C[C@H]4CC[C@@H](C3)N4)nc(OCC34CCCN3CCC4)nc12` [Example 197, 4-((1R,5S)-3,8-diazabicyclo[3.2.1]octan-3-yl)-7-(2,3-bis(trifluoromethyl)phenyl)-8-fluoro-2-((tetrahydro-1H-pyrrolizin-7a(5H)-yl)methoxy)pyrido[4,3-d]pyrimidine] and `Fc1c(-c2ccccc2OC(F)(F)F)ncc2c(N3C[C@H]4CC[C@@H](C3)N4)nc(OCC34CCCN3CCC4)nc12` [Example 229, 4-((1R,5S)-3,8-diazabicyclo[3.2.1]octan-3-yl)-8-fluoro-2-((tetrahydro-1H-pyrrolizin-7a(5H)-yl)methoxy)-7-(2-(trifluoromethoxy)phenyl)pyrido[4,3-d]pyrimidine bis-hydrochloride] are within 1.5-fold of each other in IC50: 99.9 nM for the first, 121 nM for the second.

First: CN1C[C@H](NC(=O)c2cccc(S(=O)(=O)F)c2)C[C@H]1COc1nc(N2C[C@H]3CC[C@@H](C2)N3)c2cnc(-c3cccc4cccc(Cl)c34)c(F)c2n1 [Example 211, 3-(((3R,5S)-5-(((4-((1R,5S)-3,8-diazabicyclo[3.2.1]octan-3-yl)-7-(8-chloronaphthalen-1-yl)-8-fluoropyrido[4,3-d]pyrimidin-2-yl)oxy)methyl)-1-methylpyrrolidin-3-yl)carbamoyl)benzenesulfonyl fluoride tris(2,2,2-trifluoroacetate)]
Second: Fc1c(-c2cccc3cccc(Cl)c23)ncc2c(N3CC4CCC(C3)N4)nc(OC[C@@H]3CC(F)(F)CN3)nc12 [Example 352, 4-((1R,5S)-3,8-diazabicyclo[3.2.1]octan-3-yl)-7-(8-chloronaphthalen-1-yl)-2-(((S)-4,4-difluoropyrrolidin-2-yl)methoxy)-8-fluoropyrido[4,3-d]pyrimidine bis(2,2,2-trifluoroacetate)]
The IC50 of the first is 4-fold lower: 212 nM for the first, 845 nM for the second. The first is the more potent here.

Going from `CN(C)c1nc(N2CC3CCC(C2)N3)c2cnc(-c3cc(O)cc4ccccc34)c(F)c2n1` [Example 184, 4-[4-(3,8-diazabicyclo[3.2.1]octan-3-yl)-2-(dimethylamino)-8-fluoro-pyrido[4,3-d]pyrimidin-7-yl]naphthalen-2-ol] to `CN1CCC[C@H]1COc1nc(N2C[C@H]3CC[C@@H](C2)N3)c2cnc(-c3cc(O)cc4cccc(Cl)c34)c(F)c2n1` [Example 63, 4-(4-((1R,5S)-3,8-diazabicyclo[3.2.1]octan-3-yl)-8-fluoro-2-(((S)-1-methylpyrrolidin-2-yl)methoxy)pyrido[4,3-d]pyrimidin-7-yl)-5-chloronaphthalen-2-ol], the IC50 falls from 1990 nM to 0.4 nM (5000-fold). The second is the more potent here.

First: OCCc1cccc2cccc(-c3ncc4c(N5C[C@H]6CC[C@@H](C5)N6)nc(OCC56CCCN5CCC6)nc4c3F)c12 [Example 239, 2-(8-(4-((1R,5S)-3,8-diazabicyclo[3.2.1]octan-3-yl)-8-fluoro-2-((tetrahydro-1H-pyrrolizin-7a(5H)-yl)methoxy)pyrido[4,3-d]pyrimidin-7-yl)naphthalen-1-yl)ethan-1-ol]
Second: CCCc1ccccc1-c1ncc2c(N3C[C@H]4CC[C@@H](C3)N4)nc(OCC34CCCN3CCC4)nc2c1F [Example 447, 4-((1R,5S)-3,8-diazabicyclo[3.2.1]octan-3-yl)-8-fluoro-7-(2-propylphenyl)-2-((tetrahydro-1H-pyrrolizin-7a-(5H)-yl)methoxy)pyrido[4,3-d]pyrimidine]
The IC50 of the first is 150-fold lower: 2 nM for the first, 297 nM for the second.

Compared with `Cc1ccc2c(-c3ncc4c(N5C[C@H]6CC[C@@H](C5)N6)nc(OC[C@@H]5CCCN5C)nc4c3F)cccc2c1` [Example 207, 4-((1R,5S)-3,8-diazabicyclo[3.2.1]octan-3-yl)-8-fluoro-7-(6-methylnaphthalen-1-yl)-2-(((S)-1-methylpyrrolidin-2-yl)methoxy)pyrido[4,3-d]pyrimidine], `CC1(C)CN2C[C@H](F)CC2(COc2nc(N3CC4CCC(C3)N4)c3cnc(-c4cccc5cccc(Cl)c45)c(F)c3n2)C1` (mixture of isomers) [Example 325, 4-((1R,5S)-3,8-diazabicyclo[3.2.1]octan-3-yl)-7-(8-chloronaphthalen-1-yl)-8-fluoro-2-((6-fluoro-2,2-dimethyltetrahydro-1H-pyrrolizin-7a(5H)-yl)methoxy)pyrido[4,3-d]pyrimidine (racemic, trans)] is 35-fold lower in IC50: 4910 nM for the first, 141 nM for the second.

First: CCc1c(Cl)cccc1-c1ncc2c(N3C[C@H]4CC[C@@H](C3)N4)nc(OCC34CCCN3CCC4)nc2c1F [Example 312, 4-((1R,5S)-3,8-diazabicyclo[3.2.1]octan-3-yl)-7-(3-chloro-2-ethylphenyl)-8-fluoro-2-((hexahydro-1H-pyrrolizin-7a-yl)methoxy)pyrido[4,3-d]pyrimidine]
Second: O[C@@H]1C[C@@H]2CN(c3nc(OCCC(F)(F)F)nc4c(F)c(-c5cccc6cccc(Cl)c56)ncc34)C[C@H]1N2 [Example 155, (1R,5R,6R)-3-(7-(8-chloronaphthalen-1-yl)-8-fluoro-2-(3,3,3-trifluoropropoxy)pyrido[4,3-d]pyrimidin-4-yl)-3,8-diazabicyclo[3.2.1]octan-6-ol]
The IC50 of the first is 380-fold lower: 9 nM for the first, 3420 nM for the second. The first is the more potent here.
